{"source": "patent US7276337B2", "about": "“Compositions and methods for visual ribonuclease detection assays” (Integrated DNA Technologies, Inc., priority 2000, dated 2007)", "key": {"[1]": {"biological_target": "T1, RNase 1 (Escherichia coli, UniProt P21338)", "T1 sequence (P21338 24-268)": "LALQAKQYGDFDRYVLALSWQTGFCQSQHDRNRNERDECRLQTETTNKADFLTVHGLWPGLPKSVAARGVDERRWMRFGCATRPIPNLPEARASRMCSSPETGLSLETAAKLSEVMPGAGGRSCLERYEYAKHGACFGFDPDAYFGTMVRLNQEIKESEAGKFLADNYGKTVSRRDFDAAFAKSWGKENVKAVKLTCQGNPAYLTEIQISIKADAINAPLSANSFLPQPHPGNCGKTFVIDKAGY", "test": "Visual detection ribonuclease assay, cleavage of Substrate by RNase 1", "format": "biochemical, E. coli", "settings": "final dilution factors of stock 10^−2 to 10^−7; Substrate 500 nM; room temperature 10 minutes", "method": "It is commonly accepted that fluorometry provides for high sensitivity. To be useful, the visual method must also offer high sensitivity. Assays were conducted using the method of the invention with visual detection. Substrate SEQ ID NO:30 was mixed in 1× Assay Buffer at a concentration of 500 nM (50 pmoles ODN in 100 ul volume) in thin-walled, UV transparent tubes. […] Dilutions of stock RNase A, RNase 1, and RNase T1 were made in water. Undiluted and diluted nuclease (1 ul) was added to respective 100 ul Assay Mixes resulting in final dilution factors of 10^−2, 10^−3, 10^−4, 10^−5, 10^−6, and 10^−7. Assays were incubated at room temperature for 10 minutes and visually examined for fluorescence emission with UV excitation. […] The experiment took about 30 minutes to perform, including 15 minutes to set-up serial dilutions, 10 minutes incubation, and 5 minutes to visualize and photograph. Thus the method of the invention allows for a rapid, simple, and convenient visual assay for the presence of ribonuclease activity."}, "[2]": {"biological_target": "T2, RNase A (Bos taurus, UniProt P61823)", "T2 sequence (P61823 27-150)": "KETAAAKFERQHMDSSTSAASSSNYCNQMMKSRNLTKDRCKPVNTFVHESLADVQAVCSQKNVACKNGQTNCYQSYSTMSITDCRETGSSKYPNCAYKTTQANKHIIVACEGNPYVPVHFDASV", "test": "Fluorometric detection nuclease assay, RNase A", "format": "biochemical, mammalian", "settings": "Substrate 50 nM", "method": "Nuclease assays were conducted using the method of the invention. SEQ ID NO:2 and SEQ ID NO:3 oligonucleotides were individually mixed in 1× Assay Buffer at a concentration of 50 nM (150 pmoles oligonucleotide in 3 mls volume). […] Assays were set up directly in cuvettes as follows:\nAssay Mixes were incubated at 37° C. for 1 hour. Fluorescence emission spectra were measured using a PTI fluorometer with 490 nm excitation. Substrate SEQ ID NO:2 (having chimeric RNA-DNA composition) reacted with both DNase I (undesired) and RNase A (desired).\n(§1) Nuclease assays were conducted using the method of the invention. The Substrate (SEQ ID NO:30) was mixed in 1× Assay Buffer at a concentration of 50 nM (150 pmoles oligonucleotide in 3 mls volume). Test nucleases were added to respective Assay Mixes, including 1 ul of RNase A (1 ug), 1 ul of RNase 1 (100 units), or 1 ul of RNase T1 (1000 units). […] Assays were set up directly in cuvettes as follows:\n(§2) Assay Mixes were incubated at 37° C. for 1 hour. Assays were transferred to cuvettes and fluorescence emission at 520 nm was measured using a PTI fluorometer with 490 nm excitation. Substrate SEQ ID NO:30, a preferred Substrate of the invention, reacted with (i.e., detected) all three RNase enzymes, verifying that Substrate compositions of the invention are sensitive to a variety of RNase enzymes.\nSubstrate SEQ ID NO:30 was mixed in 1× Assay Buffer at a concentration of 50 nM (150 pmoles oligonucleotide in 3 mls volume). RNase A was added at final concentrations of 10 ng/ml, 2 ng/ml, 1 ng/ml, and 0.4 ng/ml. […] Assay mixes were incubated at 37° C. in a cuvette directly in a PTI fluorometer. Fluorescence emission at 520 nm with 490 nm excitation was measured over time. At high nuclease concentrations, the reaction goes rapidly to completion. At lower nuclease concentrations, the reaction rate decreases but with longer incubation times an easily detectable signal is generated. Substrate concentration is fixed and input enzyme (i.e., the test sample) varies. Since the background is stable (monitored in the control reaction), use of extended incubation periods will increase the sensitivity of the assay.\nAssays were conducted using the method of the invention with fluorometric detection. Substrate SEQ ID NO:30 was mixed in 1× Assay Buffer at a concentration of 50 nM (50 pmoles ODN in 1.0 ml volume) in RNase-free disposable cuvettes. […] Dilutions of stock RNase A, RNase 1, and RNase T1 were made in water. Undiluted and diluted nuclease (1 ul) was added to respective 1.0 ml Assay Mixes resulting in final dilution factors of 10^−3, 10^−4, 10^−5, 10^−6, 10^−7, 10^−8, and 10^−9. Assays were incubated at 37° C. for 1 hour and examined for fluorescence emission at 520 nm using 490 nm excitation in a PTI fluorometer. Final enzyme concentration reported notes the lowest concentration tested that was reproducibly positive with a signal:noise ratio of at least 2:1."}, "[3]": {"biological_target": "RNase T1 (Aspergillus oryzae, UniProt P00651)", "sequence (P00651 27-130)": "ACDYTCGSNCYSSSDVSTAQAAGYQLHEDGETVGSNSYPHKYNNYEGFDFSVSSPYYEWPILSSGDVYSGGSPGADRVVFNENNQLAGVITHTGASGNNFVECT", "test": "Fluorometric detection nuclease assay, RNase T1", "format": "biochemical", "settings": "Substrate 50 nM, 37° C. 1 hour", "method": "as §1, §2\n(§3) Assays were conducted using the method of the invention with fluorometric detection. Substrate SEQ ID NO:30 was mixed in 1× Assay Buffer at a concentration of 50 nM (50 pmoles ODN in 1.0 ml volume) in RNase-free disposable cuvettes. […] Dilutions of stock RNase A, RNase 1, and RNase T1 were made in water. […] Assays were incubated at 37° C. for 1 hour and examined for fluorescence emission at 520 nm using 490 nm excitation in a PTI fluorometer. […]"}, "[4]": {"biological_target": "T1, RNase 1", "test": "Fluorometric detection nuclease assay, RNase 1", "format": "biochemical, E. coli", "settings": "Substrate 50 nM, 37° C. 1 hour", "method": "as §1, §2, §3"}, "[5]": {"test": "Ribonuclease assay on an environmental sample (tapwater), visual detection", "format": "biochemical", "settings": "with Assay Buffer, Substrate 500 nM, room temperature 10 minutes", "method": "Nuclease assays were conducted using the method of the invention. Dilutions of the test sample (tapwater) were made in nuclease-free water both with and without the addition of Assay Buffer. Samples were tested having 100%, 50%, 25%, 10%, 5%, and 1% tapwater. Assay Mixes contained test sample (diluted or undiluted tapwater) and Substrate (SEQ ID NO:30) at a concentration of 500 nM (50 pmoles ODN in 100 ul volume). Control Assay Mixes were in nuclease-free water without added tapwater. Duplicate Assays were performed with and without 1× Assay Buffer. Assay Mixes were incubated at room temperature for 10 minutes. Reactions were visually examined for fluorescence emission in the assay tubes without further manipulation. Tubes were suspended above an ultraviolet light source, visually inspected, and photographed using a digital camera. […] The test samples (with tapwater) emitted fluorescent signal. With Assay Buffer, tapwater was detectable when diluted to as little as 10 parts-per-thousand (1%). Without Assay Buffer, the assay was less sensitive and fluorescent emission was less intense. Addition of Buffer thus led to improved assay sensitivity."}}}
{"substance": "5′ Fluorescein-AauggcA-QSY-7 3′ (NAAUGGCAN; 5' fluorescein and 3' QSY-7 labels, nucleotide chemistry not given here) [SEQ ID NO:30]", "values": [{"measurement": "Detection of RNase 1 activity by visual examination", "setting": "[1]", "result": "clearly detectable"}, {"measurement": "Reactivity with RNase A (fluorometer)", "setting": "[2]; RNase A 0.33 ug/ml, 37° C. 1 hour, 490 nm excitation", "result": "reacted"}, {"measurement": "Assay background (hydrolysis of the Substrate) over time", "setting": "[2]; control reaction without ribonuclease, 1× Assay Buffer, 37° C.", "result": "stable"}, {"measurement": "Enzyme Concentration, lowest tested reproducibly positive with signal:noise at least 2:1, RNase A", "setting": "[2]; fluorometric detection, 37° C. 1 hour, dilution factor 10^−8", "result": 10, "unit": "pg/mL"}, {"measurement": "Reactivity with RNase T1 (fluorometer)", "setting": "[3]; RNase T1 333 units/ml, emission 520 nm, 490 nm excitation", "result": "reacted"}, {"measurement": "Enzyme Concentration, lowest tested reproducibly positive with signal:noise at least 2:1, RNase T1", "setting": "[3]; fluorometric detection, dilution factor 10^−8", "result": 0.00001, "unit": "units/ml"}, {"measurement": "Reactivity with RNase 1 (fluorometer)", "setting": "[4]; RNase 1 33 units/ml, emission 520 nm, 490 nm excitation", "result": "reacted"}, {"measurement": "Enzyme Concentration, lowest tested reproducibly positive with signal:noise at least 2:1, RNase 1", "setting": "[4]; fluorometric detection, dilution factor 10^−7", "result": 0.00001, "unit": "units/ml"}, {"measurement": "Lowest tapwater concentration detectable", "setting": "[5]", "result": 1, "unit": "%"}]}
